Source: patent US9012492B2, “Apocynin-lipoic acid conjugates and uses thereof” (priority 2011, dated 2015)

Test system: Sprague-Dawley rats
Assay: Infarct volume after transient middle cerebral artery occlusion, ischemia/reperfusion (I/R)
Assay type: in vivo, rat
Method: Sprague-Dawley rats were used to study the effects of (Ia) on reperfusion injury following stroke in a rodent model. The rats were anesthetized, and injected with (la) (0.01-0.1 mg/kg). After 30 minutes, occlusion of the middle cerebral artery (MCA) was performed.
The detailed methodology for permanent middle cerebral artery occlusion (MCAO) and transient (I/R) occlusion of the middle cerebral artery has been published previously.^46 Briefly, animals were placed in a David Kopf stereotaxic frame (Tujunga, Calif.), and the right middle cerebral artery (MCA) approached through a rostral-caudal incision of the skin and frontalis muscle at the approximate level of bregma. Blood flow through the MCA was impeded by the placement of surgical suture behind the MCA at three designated positions along the exposed vessel. The sutures were positioned so that the middle of each suture applied pressure to the underside of the MCA and impeded blood flow as confirmed using laser Doppler flowmetry (OxyFlo, Oxford-Optronix, Oxford, UK; Ref. 46). This three-point placement of surgical sutures produced a highly reproducible and consistent focal ischemic lesion (permanent ischemia) restricted to the prefrontal cerebral cortex. For transient I/R, the sutures were left in place for 30 min and then removed (reperfusion) to allow blood flow to return to the area for an additional 5.5 h (209 rats received I/R). In 12 rats, sutures were left in place for 6 h as a model of permanent ischemia.
To examine the effect of the compound of Formula (Ia) on I/R-induced cell death, injections of the compound of Formula (Ia) (0.01, 0.05, 0.1, or 0.5 mg/kg; 1 ml/kg iv; n=4 per group) or vehicle (25% EtOH; 1 ml/kg iv; n=6) were made 30 min prior to the onset of MCAO. The sutures were left in place for 30 min and removed. Reperfusion was allowed for 5.5 h, and the experiment was terminated.
To determine whether the compound of Formula (Ia) was neuroprotective when administered during the 30-min period of occlusion, injections of the compound of Formula (Ia) at a dose that produced optimal neuroprotection based on the dose-response-curve described above (0.1 mg/kg; 1 ml/kg iv; n=4) or vehicle (25% EtOH; 1 mi/kg iv; n=4) were made 15 min following the onset of MCAO. After a further 15 min, the sutures were removed to allow for an additional 5.5 h of reperfusion.
To examine the effect of the compound of Formula (Ia) on reperfusion injury alone, injections of the optimal dose of the compound of Formula (Ia) (0.1 mg/kg; 1 ml/kg iv; n=4 per group) or vehicle (1 ml/kg iv; n=4 or 5 per group) were made following 30 min of MCAO, immediately prior to the removal of the sutures, or 30, 60, 90, 120, or 180 min following suture removal (start of reperfusion). In all cases, the experiments were terminated following 5.5 h of reperfusion.
To determine whether the compound of Formula (Ia) required bioactivation and/or metabolism to an active intermediate to produce neuroprotection, the effect of direct intracortical injections of the compound of Formula (Ia) on infarct volume were investigated in the present model of transient occlusion (I/R). The compound of Formula (Ia) (0.01, 0.1, 0.5, or 1.0 μM in 200 n1; n=4 per group) or the same volume of vehicle (0.0125% EtOH; 200 n1; n=6) was injected into the ipsilateral hemisphere (bregma—0.3 mm, lateral—5.5 mm and depth of—3.0 mm from the dorsal surface of the brain)^47 10 min prior to suture placement followed by 30 min of MCAO and 5.5 h of reperfusion.
To examine the effect of the compound of Formula (Ia) on the change in infarct volume over the 5.5 h of reperfusion, injections of the optimal dose of the compound of Formula (Ia) (0.1 mg/kg; 1 ml/kg iv; n=4 per group) or vehicle (25% EtOH; 1 ml/kg iv; n=4) were made 30 min prior to the onset of MCAO. The sutures were left in place for 30 min. […]

## COc1cc(C(C)=O)ccc1OC(=O)CCCCC1CCSS1 (centres unmarked) [compound of Formula (Ia)]
0.1 mg/kg iv 15 min into 30-min MCAO (15 min prior to reperfusion)
  infarct volume after 5.5 h reperfusion vs vehicle: significant neuroprotection
0.1 mg/kg iv 30 min following the start of reperfusion
  infarct volume after 5.5 h reperfusion vs vehicle: significant decreases in infarct volume
0.1 mg/kg iv 30 min prior to MCAO, 30 min MCAO, 5.5 h reperfusion
  infarct volume following I/R vs vehicle: significant decrease in infarct volume
0.1 mg/kg iv 30 min prior to MCAO, end of 5.5 h of reperfusion
  mean infarct volume smaller than the vehicle group: ~53%
0.1 mg/kg iv 30 min prior to MCAO, measured at 4 h
  mean infarct volume vs vehicle, time course: significantly smaller
0.1 mg/kg iv 30 min prior to MCAO, measured at 6 h
  mean infarct volume vs vehicle, time course: significantly smaller
0.1 mg/kg iv 60 min following the start of reperfusion
  infarct volume after 5.5 h reperfusion vs vehicle: significant decreases in infarct volume
0.1 mg/kg iv 90 min following the start of reperfusion
  infarct volume after 5.5 h reperfusion vs vehicle: significant decreases in infarct volume
0.1 mg/kg iv 120 min following suture removal
  infarct volume after 5.5 h reperfusion vs vehicle: did not result in a significant difference in infarct volume
0.1 mg/kg iv 180 min following suture removal
  infarct volume after 5.5 h reperfusion vs vehicle: did not result in a significant difference in infarct volume
0.1 mg/kg iv at time 0 (start of reperfusion)
  infarct volume after 5.5 h reperfusion vs vehicle: significant decreases in infarct volume
0.5 mg/kg iv 30 min prior to MCAO, 30 min MCAO, 5.5 h reperfusion
  infarct volume following I/R vs vehicle: significant decrease in infarct volume
0.01, 0.05, 0.1, 0.5 mg/kg iv 30 min prior to MCAO, 30 min MCAO, 5.5 h reperfusion
  neuroprotection (infarct volume) following I/R: dose-dependent neuroprotection
Example 3, 0.01-0.1 mg/kg injected 30 minutes before MCA occlusion, vs ethanol vehicle
  stroke infarct volume: dose-dependent reduction in stroke infarct volume
I/R model, iv
  dose required to produce significant neuroprotection: 0.1 mg/kg
Direct intracortical preinjection 1.0 μM (200 nl) 10 min pre-MCAO
  infarct volume following I/R vs vehicle: significant decrease in infarct volume
Optimal dose (0.1 mg/kg iv)
  latest administration time giving significant neuroprotection, following the start of reperfusion: up to 90 min
